According to patent US9980943B2, “Methods of treating muscular dystrophy” (BOARD OF REGENTS OF THE NEVADA SYSTEM OF HIGHER EDUCATION, …, priority 2013, dated 2018):

Tests used:
Type in all cases: cell-based, mouse
[1] = test system: α7 integrin (LacZ reporter in α7βgal+/− myoblasts); test: Myoblast α7+/LacZ integrin FDG assay (Burkin assay in myoblasts, 96-well); conditions: α7+/LacZ myoblasts, 96-well
[2] = test system: α7 integrin (LacZ reporter in α7+/LacZ myotubes); test: Myotube α7 integrin FDG assay (Burkin assay in myotubes, 96-well); conditions: myotubes
[3] = test system: β-galactosidase in CMV-LacZ C2C12 myotubes; test: CMV-LacZ secondary screen in C2C12 myotubes (β-Gal stabilizing assay); conditions: for CMV-LACZ in Myotubes (β-galactosidase activity relative to DMSO): CMV-LacZ C2C12 myotubes, 96-well format; for CMV-LACZ in Myotubes, signal relative to DMSO: C2C12 CMV-LacZ myotubes, fold relative to DMSO
Procedure, shortened: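 Dose-response runs at 0.5–40 μM (0.5, 1, 5, 10, 20, 40 μM; N=2 per point) used a clonal C2C12 line carrying CMV-LacZ. Cells were assayed as myoblasts or as differentiated myotubes, and β-galactosidase levels were read with the FDG fluorogenic substrate.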

SMILES | Burkin Assay in Myoblasts, value relative to DMSO ([1]; 0.5 uM) | Burkin Assay in Myoblasts, value relative to DMSO ([1]; 1 uM) | Burkin Assay in Myoblasts, value relative to DMSO ([1]; 5 uM) | Burkin Assay in Myoblasts, value relative to DMSO ([1]; 10 uM) | Burkin Assay in Myoblasts, signal relative to DMSO ([1]; 0.5 uM) | Burkin Assay in Myoblasts, signal relative to DMSO ([1]; 1 uM) | Burkin Assay in Myoblasts, signal relative to DMSO ([1]; 5 uM) | Burkin Assay in Myoblasts, signal relative to DMSO ([1]; 10 uM) | Burkin Assay in Myoblasts, signal relative to DMSO ([1]; 20 uM) | Burkin Assay in Myoblasts, signal relative to DMSO ([1]; 40 uM) | Burkin Assay in Myotubes, α7 integrin LacZ reporter signal relative to DMSO ([2]; 0.5 uM) | Burkin Assay in Myotubes, α7 integrin LacZ reporter signal relative to DMSO ([2]; 1 uM) | Burkin Assay in Myotubes, α7 integrin LacZ reporter signal relative to DMSO ([2]; 5 uM) | Burkin Assay in Myotubes, α7 integrin LacZ reporter signal relative to DMSO ([2]; 10 uM) | Burkin Assay in Myotubes, α7 integrin LacZ reporter signal relative to DMSO ([2]; 20 uM) | Burkin Assay in Myotubes, α7 integrin LacZ reporter signal relative to DMSO ([2]; 40 uM) | CMV-LACZ in Myotubes, signal relative to DMSO ([3]; 5 uM) | CMV-LACZ in Myotubes, signal relative to DMSO ([3]; 10 uM) | CMV-LACZ in Myotubes, signal relative to DMSO ([3]; 20 uM) | CMV-LACZ in Myotubes, signal relative to DMSO ([3]; 40 uM) | other results
O=C(c1ccc(Cl)c(S(=O)(=O)N2CCCCC2)c1)N1CCN(Cc2ccccc2)CC1 [MLS001060561-01] | 0.9961 | 0.9284 | 0.8266 | 0.8878 |  |  |  |  |  |  |  |  |  |  |  |  |  |  |  |  | Burkin Assay in Myoblasts, value relative to DMSO ([1]; 20 uM): 0.795; Burkin Assay in Myoblasts, value relative to DMSO ([1]; 40 uM): 0.6318; Burkin Assay in Myotubes (signal relative to DMSO) ([2]; 0.5 uM): 0.8047; Burkin Assay in Myotubes (signal relative to DMSO) ([2]; 1 uM): 0.9329; Burkin Assay in Myotubes (signal relative to DMSO) ([2]; 5 uM): 0.9832; Burkin Assay in Myotubes (signal relative to DMSO) ([2]; 10 uM): 0.9977; Burkin Assay in Myotubes (signal relative to DMSO) ([2]; 20 uM): 0.8557; Burkin Assay in Myotubes (signal relative to DMSO) ([2]; 40 uM): 0.9329; CMV-LACZ in Myotubes (β-galactosidase activity relative to DMSO) ([3]; 5 uM): 0.9396; CMV-LACZ in Myotubes (β-galactosidase activity relative to DMSO) ([3]; 10 uM): 1.002; CMV-LACZ in Myotubes (β-galactosidase activity relative to DMSO) ([3]; 20 uM): 0.9373; CMV-LACZ in Myotubes (β-galactosidase activity relative to DMSO) ([3]; 40 uM): 0.6425
CCCCNC(=O)CSc1nnc(Cc2ccc(Cl)c(Cl)c2)c(=O)[nH]1 [MLS001177259-01] |  |  |  |  | 0.9606 | 0.9896 | 0.9735 | 0.9165 | 0.7694 | 0.7773 | 0.948 | 1.053 | 0.9988 | 1.044 | 0.8187 | 0.9237 | 0.9462 | 0.7316 | 0.8543 | 1.1 | 
Cc1ccc(S(=O)(=O)NC(C)C(=O)NC(C)c2cccs2)cc1 (stereo not shown) [MLS001221867-01] |  |  |  |  | 1.001 | 1.024 | 0.9275 | 0.922 | 0.9616 | 0.8943 | 0.9728 | 0.9422 | 0.9593 | 0.9374 | 1.02 | 0.9915 | 0.9954 | 0.9834 | 1.0515 | 1.0745 | 
CCOc1ccc(NC(=O)CN2C(=O)S/C(=C/c3cccn3C)C2=O)cc1 [MLS000702680-01] |  |  |  |  | 0.845 | 0.8804 | 0.8623 | 0.8908 | 0.6925 | 0.6264 | 1.016 | 0.9196 | 0.9678 | 0.7773 | 0.8074 | 0.7464 | 1.008 | 1.107 | 1.233 | 1.181 | 
C[C@H]1CNC(=O)c2c(C(=O)Nc3ccc(CNC(=O)OC(C)(C)C)cc3)ncn21 [MLS003126425-01] | 1.146 | 1.1398 | 1.282 | 1.254 |  |  |  |  |  |  |  |  |  |  |  |  |  |  |  |  | Burkin Assay in Myoblasts, value relative to DMSO ([1]; 20 uM): 1.13; Burkin Assay in Myoblasts, value relative to DMSO ([1]; 40 uM): 0.4401; Burkin Assay in Myotubes (signal relative to DMSO) ([2]; 0.5 uM): 1.104; Burkin Assay in Myotubes (signal relative to DMSO) ([2]; 1 uM): 1.203; Burkin Assay in Myotubes (signal relative to DMSO) ([2]; 5 uM): 1.422; Burkin Assay in Myotubes (signal relative to DMSO) ([2]; 10 uM): 1.6782; Burkin Assay in Myotubes (signal relative to DMSO) ([2]; 20 uM): 0.7372; Burkin Assay in Myotubes (signal relative to DMSO) ([2]; 40 uM): 0.5208; CMV-LACZ in Myotubes (β-galactosidase activity relative to DMSO) ([3]; 5 uM): 1.354; CMV-LACZ in Myotubes (β-galactosidase activity relative to DMSO) ([3]; 10 uM): 0.8902; CMV-LACZ in Myotubes (β-galactosidase activity relative to DMSO) ([3]; 20 uM): 0.743; CMV-LACZ in Myotubes (β-galactosidase activity relative to DMSO) ([3]; 40 uM): 0.7123
CC1CCCCN1c1ncnc(N)c1[N+](=O)[O-] (stereo not shown) [MLS000683234-01] |  |  |  |  | 1.187 | 0.8341 | 1.134 | 1.152 | 1.067 | 1.21 | 0.9165 | 1.053 | 1.091 | 1.273 | 1.414 | 1.631 | 0.8204 | 0.8111 | 0.6952 | 0.93 | 
Cc1nnc(NC(=O)CSc2nnc(CCNC(=O)c3ccccc3F)n2C)s1 [MLS001217045-01] | 0.881 | 0.9697 | 1.087 | 1.112 |  |  |  |  |  |  |  |  |  |  |  |  |  |  |  |  | Burkin Assay in Myoblasts, value relative to DMSO ([1]; 20 uM): 1.057; Burkin Assay in Myoblasts, value relative to DMSO ([1]; 40 uM): 1.109; Burkin Assay in Myotubes (signal relative to DMSO) ([2]; 0.5 uM): 1.001; Burkin Assay in Myotubes (signal relative to DMSO) ([2]; 1 uM): 1.156; Burkin Assay in Myotubes (signal relative to DMSO) ([2]; 5 uM): 0.94; Burkin Assay in Myotubes (signal relative to DMSO) ([2]; 10 uM): 1.154; Burkin Assay in Myotubes (signal relative to DMSO) ([2]; 20 uM): 1.115; Burkin Assay in Myotubes (signal relative to DMSO) ([2]; 40 uM): 1.051; CMV-LACZ in Myotubes (β-galactosidase activity relative to DMSO) ([3]; 5 uM): 0.9613; CMV-LACZ in Myotubes (β-galactosidase activity relative to DMSO) ([3]; 10 uM): 0.9821; CMV-LACZ in Myotubes (β-galactosidase activity relative to DMSO) ([3]; 20 uM): 0.9272; CMV-LACZ in Myotubes (β-galactosidase activity relative to DMSO) ([3]; 40 uM): 0.9127
